In paper PMC4754833, “Rilpivirine analogs potently inhibit drug-resistant HIV-1 mutants” (Retrovirology, 2016):

Experiments:
HIV-1 RT mutant L100I = system: HIV-1 RT mutant L100I; parameters: method as in PMID 23217210; settings: previous study; cited from earlier work
HIV-1 RT mutant G190A = assay: single round infection assay, G190A; assay type: cell-based; settings: for fold-change of IC50 of the mutant relative to WT: G190A vs WT; for IC50: Human immunodeficiency virus 1
Procedure: (§1) The human osteosarcoma cell line, HOS, was obtained from Dr. Richard Schwartz (Michigan State University, East Lansing, MI) and grown in Dulbecco’s modified Eagle’s medium (Invitrogen, Carlsbad, CA) supplemented with 5 % (v/v) fetal bovine serum, 5 % newborn calf serum, and penicillin (50 units/ml) plus streptomycin (50 µg/ml; Quality Biological, Gaithersburg, MD). Virion production and single-round infectivity assays were used to determine antiviral activity (IC50 values) of the compounds as previously described.
(§2) pNLNgoMIVR-ΔEnv.LUC has been described previously. The RT open reading frame was removed from pNLNgoMIVR-ΔEnv.LUC (digestion with SpeI and SalI) and inserted between the SpeI and SalI sites of pBluescript II KS+. Using that construct as the wild-type template, we prepared the following HIV-1 RT mutants using the QuikChange II XL (Stratagene, La Jolla, CA) site-directed mutagenesis protocol kit: L100I, K103N, Y181C, Y188L, H221Y, K103N/Y181C, G190A, G190S, M230L, P236L, L100I/K103N, K103N/P225H, V106A/G190A/F227L, V106A, L234I, V106A/F227L, V106A/L234I, V106A/F227L/L234I, E40K, D67E, K101E, V111A, E138K, M184I, M184V, K101E/M184I, K101E/M184V, E138K/M184I, E138K/M184V, K101P, Y181I, and K101P/V179I. The following sense oligonucleotides were used with matching cognate antisense oligonucleotides (not shown) (Integrated DNA Technologies, Coralville, IA) in the mutagenesis: L100I, 5′-[…]-3′; L100I 2-103, 5′-[…]-3′; K103N, 5′-[…]-3′; Y181C, 5′-[…]-3′; Y188L, 5′-[…]-3′; H221Y, 5′-[…]-3′; G190A, 5′-[…]-3′; G190S, 5′-[…]-3′; P225H, 5′-[…]-3′; F227, 5′-[…]-3′; M230L, 5′-[…]-3′; P236L, 5′-[…]-3′; V106A, 5′-[…]-3′; L234I, 5′-[…]-3′; E40K, 5′-[…]-3′; D67E, 5′-[…]-3′; K101E, 5′-[…]-3′; V111A, 5′-[…]-3′; E138K, 5′-[…]-3′; M184I, 5′-[…]-3′; M184V, 5′-[…]-3′; K101P, 5′-[…]-3′; Y181I, 5′-[…]-3′; K101P/V179I, 5′-[…]-3′. The double mutants K103N/Y181C, K103N/P225H, and L100I/K103N were made using the previously generated K103N mutant and the appropriate oligonucleotides to add the second mutation, Y181C, P225, and L100I respectively. The double mutants V106A/F227L and V106A/L234I were prepared using the previously generated V106A mutant and the appropriate oligonucleotides to add the second mutation, F227L and L234I, respectively. The double mutants K101E/M184I and K101E/M184V were constructed using the previously generated K101E mutant and the appropriate oligonucleotides to add the second mutation, M184I and M184V, respectively. The double mutants E138K/M184I and E138K/M184V were constructed using the previously generated E138K mutant and the appropriate oligonucleotides for the second mutation, M184I and M184V, respectively. The triple mutant V106A/F227L/L234I was made using the previously generated V106A/F227L double mutant and the appropriate oligonucleotides for the third mutation, L234I. The triple mutant V106A/G190A/F227L was constructed in a series of steps using the previously generated V106A mutant and the appropriate oligonucleotides for the second mutation, G190A, to generate the double mutant V106A/G190A, and then the triple mutant was made using double mutant V106A/G190A and oligonucleotides for the third mutation, F227L. The DNA sequence of each construct was verified by DNA sequence determination. The sequences encoding the mutant RTs were then subcloned into pNLNgoMIVR-ΔEnv.LUC (between the KpnI and SalI sites) to produce the mutant HIV-1 constructs. These DNA sequences were also checked independently by DNA sequence determination.
(§3) 10.1186/s12977-016-0244-2 The IC50 values (nM) of RPV and the RPV analogs were determined against the NNRTI resistant mutants were measured by using a single round infection assay, n = 4. The concentrations (nM) are measured by reductions in luciferase reporter activity followed by the standard deviations. […]

[1] = system: HIV-1 RT mutant V106A/F227L; assay: single round infection assay, V106A/F227L; assay type: cell-based; settings: for fold-change of IC50 of the mutant relative to WT: V106A/F227L vs WT; for IC50: ± SD, n=4
Procedure: as §1, §2, §3

HIV-1 RT mutant H221Y = system: HIV-1 RT mutant H221Y; parameters: method as in PMID 23217210; settings: previous study; cited from earlier work
HIV-1 RT mutant K101E = assay: single round infection assay, K101E; assay type: cell-based; settings: for IC50: ± SD, n=4; for fold-change of IC50 of the mutant relative to WT: K101E vs WT
Procedure: as §1, §2, §3

HIV-1 RT mutant K101P = assay: single round infection assay, K101P; assay type: cell-based; settings: for IC50: Human immunodeficiency virus 1
Procedure: as §1, §2, §3

[2] = system: HIV-1 RT mutant L100I/K103N; assay: single round infection assay, L100I/K103N; assay type: cell-based; settings: for fold-change of IC50 of the mutant relative to WT: L100I/K103N vs WT; for IC50: ± SD, n=4, limit of detection 100 nM
Procedure: as §1, §2, §3

WT HIV-1 = assay: single round infection luciferase assay, WT HIV-1; assay type: cell-based; settings: Human immunodeficiency virus 1
Procedure: as §1, §2, §3

HIV-1 RT mutant G190S = assay: single round infection assay, G190S; assay type: cell-based; settings: Human immunodeficiency virus 1
Procedure: as §1, §2, §3

[3] = system: HIV-1 RT mutant K101P/V179I; assay: single round infection assay, K101P/V179I; assay type: cell-based; settings: for IC50: Human immunodeficiency virus 1
Procedure: as §1, §2, §3

[4] = system: HIV-1 RT mutant E138K/M184V; assay: single round infection assay, E138K/M184V; assay type: cell-based; settings: for fold-change of IC50 of the mutant relative to WT: E138K/M184V vs WT; for IC50: ± SD, n=4
Procedure: as §1, §2, §3

[5] = system: HIV-1 RT mutant K103N/P225H; assay: single round infection assay, K103N/P225H; assay type: cell-based; settings: for IC50: Human immunodeficiency virus 1; for fold-change of IC50 of the mutant relative to WT: K103N/P225H vs WT
Procedure: as §1, §2, §3

HIV-1 RT mutant D67E = assay: single round infection assay, D67E; assay type: cell-based; settings: for fold-change of IC50 of the mutant relative to WT: D67E vs WT; for IC50: Human immunodeficiency virus 1, D67E, ± SD, n=4
Procedure: as §1, §2, §3

[6] = Human immunodeficiency virus 1, K101E
[7] = Human immunodeficiency virus 1, E138K/M184V
[8] = Human immunodeficiency virus 1, L100I/K103N

Cc1cc(/C=C/C#N)cc(C)c1Nc1ccnc(Nc2ccc(C#N)cc2)n1 [RPV, rilpivirine]
IC50 (HIV-1 RT mutant L100I): < 7 nM | fold-change of IC50 of the mutant relative to WT (HIV-1 RT mutant G190A): < 2 | IC50 (HIV-1 RT mutant G190A): 0.4 ± 0.08 nM | fold-change of IC50 of the mutant relative to WT [1]: 3 | IC50 (HIV-1 RT mutant H221Y): < 7 nM | IC50 (HIV-1 RT mutant K101E; [6]): < 2.5 nM | fold-change of IC50 of the mutant relative to WT (HIV-1 RT mutant K101E): 11 | IC50 (HIV-1 RT mutant K101E; K101E): 2.6 ± 1.6 nM | IC50 (HIV-1 RT mutant K101P): 6.2 nM | fold-change of IC50 of the mutant relative to WT (HIV-1 RT mutant K101P; K101P vs WT): 26 | fold-change of IC50 of the mutant relative to WT [2]: 10 | IC50 (WT HIV-1): 0.24 ± 0.1 nM | IC50 (HIV-1 RT mutant G190S): 0.11 ± 0.01 nM | IC50 [3]: 93.5 ± 12.1 nM | fold-change of IC50 of the mutant relative to WT ([3]; K101P/V179I vs WT): 390 | fold-change of IC50 of the mutant relative to WT [4]: 5 | IC50 ([4]; E138K/M184V): 1.3 ± 0.4 nM | IC50 [4, 7]: < 2.5 nM | IC50 [5]: 0.6 ± 0.2 nM | fold-change of IC50 of the mutant relative to WT [5]: 3 | fold-change of IC50 of the mutant relative to WT (HIV-1 RT mutant D67E): 3

COc1ccc(Cn2cnc3c(Nc4ccc(C#N)cc4)nc(Nc4c(C)cc(/C=C/C#N)cc4C)nc32)cc1 [compound 12]
IC50 (HIV-1 RT mutant L100I): < 7 nM | fold-change of IC50 of the mutant relative to WT (HIV-1 RT mutant G190A): < 2 | IC50 (HIV-1 RT mutant G190A): 0.9 ± 0.43 nM | IC50 ([1]; Human immunodeficiency virus 1, V106A/F227L (selected by DOR)): < 5 nM | IC50 ([1]; V106A/F227L (selected by DOR)): 7.6 ± 0.5 nM | fold-change of IC50 of the mutant relative to WT [1]: 11 | IC50 (HIV-1 RT mutant H221Y): < 7 nM | IC50 (HIV-1 RT mutant K101E; [6]): 3.3 ± 0.3 nM | fold-change of IC50 of the mutant relative to WT (HIV-1 RT mutant K101E): 5 | IC50 (HIV-1 RT mutant K101P): > 100 nM | IC50 [2, 8]: < 5.4 nM | fold-change of IC50 of the mutant relative to WT [2]: 6 | IC50 ([2]; L100I/K103N): 4.3 ± 2.6 nM | IC50 (WT HIV-1): 0.67 ± 0.06 nM | IC50 (HIV-1 RT mutant G190S): 0.37 ± 0.02 nM | IC50 [3]: > 100 nM | fold-change of IC50 of the mutant relative to WT [4]: 7 | IC50 [4, 7]: 4.9 ± 0.99 nM | IC50 [5]: 3 ± 0.4 nM | fold-change of IC50 of the mutant relative to WT [5]: 4 | fold-change of IC50 of the mutant relative to WT (HIV-1 RT mutant D67E): 43 | IC50 (HIV-1 RT mutant D67E): 29 ± 6.9 nM

Cc1cc(/C=C/C#N)cc(C)c1Nc1ncc2ncn(-c3ccc(C#N)cc3)c2n1 [compound 26]
IC50 (HIV-1 RT mutant G190A): 2.2 nM | fold-change of IC50 of the mutant relative to WT [1]: 8 | IC50 (HIV-1 RT mutant K101E; [6]): 56.1 ± 4.1 nM | fold-change of IC50 of the mutant relative to WT (HIV-1 RT mutant K101E): 7 | IC50 (HIV-1 RT mutant K101P): > 100 nM | IC50 [2, 8]: > 100 nM | IC50 (WT HIV-1): 7.7 nM | IC50 (HIV-1 RT mutant G190S): 2.1 nM | IC50 [3]: > 100 nM | fold-change of IC50 of the mutant relative to WT [4]: < 2 | IC50 [4, 7]: 13.2 ± 2.3 nM | IC50 [5]: 12.9 nM | fold-change of IC50 of the mutant relative to WT [5]: < 2 | fold-change of IC50 of the mutant relative to WT (HIV-1 RT mutant D67E): 8 | IC50 (HIV-1 RT mutant D67E): 62.3 ± 1.3 nM
